Data: US10213392B2, “Pharmaceutical composition for use in medical and veterinary ophthalmology” (Mitotech SA, priority 2009, dated 2019)
Entries after “also recorded” stand apart in the source; their conditions may differ.

How the values were obtained:
[1] = Stability of SkQ1 in solutions containing benzalkonium chloride (storage 24 hours at room temperature, HPLC-MS/MS); type: physicochemical; conditions: for Determined concentration of SkQ1 in 24 hours: 10 mM sodium phosphate pH 6.5, 0.9% NaCl
Procedure: (§1) Materials and Method for Quantitative Detection of SkQ1
(§2) Analysis is carried out by high-performance liquid chromatography with MS/MS detection.
(§3) 100 μL of the internal standard solution is placed into a 10 ml flask, 5 ml of the water-ethanol solution is added and stirred for 11 min. 500 μL of sample solution is added to 0.1 ml of a 0.5 M solution of 3-chloroperbenzoic acid in ethanol, and the volume is adjusted to the mark with ethanol-water solution and stirred for 30 min. 1 ml of the resulting solution is transferred into a chromatographic vial.
(§4) The chromatographic conditions are as follows: The device used is a Waters ACQUITY UPLC®. The column used is steel, 2.1×50 mm, filled with sorbent Acquity BEH C18, 1.7 μm (Waters, P/N 186002350) or equivalent. The column temperature is 35° C. The mobile phase is eluent A: 20 mM solution of formic acid in 5% aqueous acetonitrile and eluent B: 20 mM solution of formic acid in aqueous acetonitrile. The flow rate is 0.5 ml/min. The volume of injection is the total loop (about 11 μL). The elution mode is a gradient of eluents A and B according to Table 4.
(§5) The time of the analysis is about 5 min. The detector is a Waters TQD (tri-quadrupole) for MS/MS.
(§6) The conditions of detection is as follows: The electrospraying mode is positive (ES+). The working mode is monitoring of reactions of settled ions (MRM). The temperature of the ion source is 120° C. The vaporization temperature is 450° C. The cone voltage is 55 V. The capillary voltage is 3.0 kV. The collision gas (CID) is argon. The collision gas flow rate is 0.18 ml/min. The collision gas pressure (CID) is 4.5×10^−3 mbar. The transitions of scans and collision energy are according to Table 5.
(§7) The SkQ1 content in the product (μg/ml) was calculated using the equation:
(§8) [formula] • “S/Ssmpl” is the ratio of peak areas and SkQ1 and SkQ1-d15 in chromatograms of the sample solution; • “S/Sstd” is the ratio of SkQ1 and SkQ1-d15 peak areas in chromatograms of the SS solution; • “a” is the amount of SkQ1 taken to prepare the original standard solution, in mgs; • “W” is the water content and organic solvents in SkQ1 substance taken to prepare the original standard solution, in percent; and • “P” is the SkQ1 content in SkQ1 substance taken to prepare the original standard solution, in percent.

[2] = Stability of SkQ1 in solutions with different prolongators (storage 50 days at room temperature, HPLC-MS/MS); type: physicochemical; conditions: for Relative content of SkQ1 after incubation for 50 days: 10 mM sodium phosphate pH 6.5, 0.9% NaCl, 0.01% benzalkonium chloride, room temperature
Procedure: as §1, §2, §3, §4, §5, §6, §7, §8

SMILES: Br.CC1=C(C)C(=O)C(CCCCCCCCCC[P+](c2ccccc2)(c2ccccc2)c2ccccc2)=CC1=O [SkQ1]
- Decrease of the concentration of SkQ1 ([1]; absence of benzalkonium chloride, 24 hours): 58%
- Decrease of SkQ1 concentration during storage (in words) ([1]; addition of 0.01% benzalkonium chloride, SkQ1 up to 250 nM, 24 hours): completely prevented; also recorded: prevents a decrease in the concentration
- Determined concentration of SkQ1 in 24 hours ([1]; benzalkonium chloride 0 (control) %, added SkQ1 250 nM): 104 nM
- Relative content of SkQ1 ([1]; benzalkonium chloride 0 (control) %, added SkQ1 250 nM, 24 hours): 42%
- Determined concentration of SkQ1 in 24 hours ([1]; benzalkonium chloride 0.01%, added SkQ1 50 nM): 56 nM
- Relative content of SkQ1 ([1]; benzalkonium chloride 0.01%, added SkQ1 50 nM, 24 hours): 112%
- Determined concentration of SkQ1 in 24 hours ([1]; benzalkonium chloride 0.01%, added SkQ1 100 nM): 97 nM
- Relative content of SkQ1 ([1]; benzalkonium chloride 0.01%, added SkQ1 100 nM, 24 hours): 97%
- Determined concentration of SkQ1 in 24 hours ([1]; benzalkonium chloride 0.01%, added SkQ1 180 nM): 180 nM
- Relative content of SkQ1 ([1]; benzalkonium chloride 0.01%, added SkQ1 180 nM, 24 hours): 100%
- Determined concentration of SkQ1 in 24 hours ([1]; benzalkonium chloride 0.01%, added SkQ1 250 nM): 254 nM
- Relative content of SkQ1 ([1]; benzalkonium chloride 0.01%, added SkQ1 250 nM, 24 hours): 102%
- Relative content of SkQ1 after incubation for 50 days ([2]; 0.2% HPMC): 93%
- Effect of prolongator on SkQ1 concentration during storage (in words) ([2]; 0.2% HPMC, 50 days at room temperature): stabilizes the concentration
- Relative content of SkQ1 after incubation for 50 days ([2]; 0.2% MC): 79%
- Relative content of SkQ1 after incubation for 50 days ([2]; control (no prolongator)): 83%
